Among the data in patent US7094801B2, “Chalcone derivatives and their use to treat diseases” (Atherogenics, Inc., priority 2001, dated 2006) are IC50 and melting point values, retold here.

By IC50 is commonly meant the concentration that inhibits the measured activity by half. Low values mean inhibition by little substance, high ones a need for much substance. By melting point is commonly meant the temperature, or range, at which the solid turns liquid.

Each structure is given as a SMILES string. Structures can show the parent of a compound that is named as a salt.

One data set relates to VCAM-1. The data set is described as follows: In Vitro VCAM-1 Assay (TNF-α stimulated HAEC or HPAEC, cell ELISA). It counts as cell-based, human. To be noted: Homo sapiens, 16 h, TNF-α (1 ng/ml) stimulated HAEC or HPAEC, approximately 16 hours. As to the method: Cell Culture and compound dosing: Cultured primary human aortic (HAEC) or pulmonary (HPAEC) endothelial cells were obtained from Clonetics, Inc., and were used below passage 9. Cells were seeded in 96 well plates such that they would reach 90–95% confluency by the following day. On the following day the cells were stimulated with TNF-α (1 ng/ml) in the presence or absence of compounds dissolved in DMSO such that the final concentration of DMSO is 0.25% or less. To establish a dose curve for each compound, four concentrations in 2- to 5-fold increments were used. Cells were exposed to TNF-α and compounds for approximately 16 hours. The next day the cells were examined under microscope to score for visual signs of toxicity or cell stress.
Following 16 hr exposure to TNF-α and compound the media was discarded and the cells were washed once with Hanks Balanced Salt Solution (HBSS)/Phosphate buffered saline (PBS) (1:1). Primary antibodies against VCAM-1 (0.25 μg/ml in HBSS/PBS+5% FBS) were added and incubated for 30–60 minutes at 37° C. Cells were washed with HBSS/PBS three times, and secondary antibody Horse Radish Peroxidase (HRP)-conjugated goat anti-mouse IgG (1:500 in HBSS/PBS+5% FBS) were added and incubated for 30 minutes at 37° C. Cells were washed with HBSS/PBS four time and TMB substrate were added and incubated at room temperature in the dark until there was adequate development of blue color. The length of time of incubation was typically 5–15 minutes. 2N sulfuric acid was added to stop the color development and the data was collected by reading the absorbance on a BioRad ELISA plate reader at OD 450 nm. The results are expressed as IC50 values (the concentration (micromolar) of compound required to inhibit 50% of the maximal response of the control sample stimulated by TNF-α only).
The molecule `COc1cc(OC)c(-c2nncn2CC(C)C)cc1/C=C/C(=O)c1ccc(C(=O)O)cc1` [Example 110, 4-{3E-[5-(4-Isobutyl-4H-[1,2,4]triazol-3-yl)-2,4-dimethoxy-phenyl]-acryloyl}-benzoic acid] came in with an IC50 of more than 10 µM.
Still for that read-out and setting: the same measure for `COc1cc(OCCN2CCOCC2)c(/C=C/C(=O)c2ccc(S(N)(=O)=O)cc2)cc1-c1cccs1` [Example 81, 4-{3E-[4-Methoxy-2-(2-morpholin-4-yl-ethoxy)-5-thiophen-2-yl-phenyl]-acryloyl}-benzenesulfonamide]: less than 1 µM.
Still for that read-out and setting: under `COc1cc(OC)c(-c2cccs2)cc1/C=C/C(=O)c1ccc(-c2nn[nH]n2)cc1` [Example 78, 3E-(2,4-Dimethoxy-5-thiophen-2-yl-phenyl)-1-[4-(2H-tetrazol-5-yl)-phenyl]-propenone] stands less than 10 µM; under `COc1ccc(/C=C/C(=O)c2ccc(C(=O)O)cc2)c(-c2cccs2)c1` [Example 34, 4-[3E-(4-Methoxy-2-thiophen-2-yl-phenyl)-acryloyl]-benzoic acid], more than 10 µM; under `O=C(O)c1ccc(C(=O)/C=C/c2cc(-c3cccs3)ccc2N2CCCC2)cc1` [Example 63, 4-[3E-(2-Pyrrolidin-1-yl-5-thiophen-2-yl-phenyl)-acryloyl]-benzoic acid], less than 10 µM.
Still for that read-out and setting: the same measure for `COc1cc(OC)c(-c2cc3ccccc3s2)cc1/C=C/C(=O)c1ccc(C(=O)NC(C)=O)cc1` [Example 95, N-Acetyl-4-[3E-(5-benzo[b]thiophen-2-yl-2,4-dimethoxy-phenyl)-acryloyl]-benzamide]: less than 1 µM; for `COC(=O)c1ccc(-c2cc(/C=C/C(=O)c3ccc(C(=O)O)cc3)c(OC)cc2OC)s1` [Example 51, 5-{5-[3-(4-Carboxy-phenyl)-3-oxo-E-propenyl]-2,4-dimethoxy-phenyl}-thiophene-2-carboxylic acid methyl ester]: less than 5 µM.
In turn, `COc1cc(/C=C/C(=O)c2ccc(N(C)S(C)(=O)=O)cc2)cc(-c2cccs2)c1OC` [Example 98, N-{4-[3E-(3,4-Dimethoxy-5-thiophen-2-yl-phenyl)-acryloyl]-phenyl}-N-methyl-methanesulfonamide] showed a half-maximal inhibitory concentration (IC50) of less than 5 µM.
Still for that read-out and setting: under `COc1cc(OC)c(-c2cc3ccccc3s2)cc1/C=C/C(=O)c1ccc(NC2OC(CO)C(O)C(O)C2O)cc1` [Example 99, 3E-(5-Benzo[b]thiophen-2-yl-2,4-dimethoxy-phenyl)-1-[4-(D-glucopyranosylamino)-phenyl]-propenone] stands more than 10 µM; under `COc1cc(OC)c(-c2cc3ccccc3s2)cc1/C=C/C(=O)c1ccc(C(=O)NCCN2CCOCC2)cc1` [Example 90, 4-[3E-(5-Benzo[b]thiophen-2-yl-2,4-dimethoxy-phenyl)-acryloyl]-N-(2-morpholin-4-yl-ethyl)-benzamide], less than 1 µM.
On the same count and under the same terms, the same measure for `COc1cc(OC)c(-c2ccc(C(=O)O)s2)cc1/C=C/C(=O)c1ccc(C(=O)O)cc1` [Example 52, 5-{5-[3-(4-Carboxy-phenyl)-3-oxo-E-propenyl]-2,4-dimethoxy-phenyl}-thiophene-2-carboxylic acid]: more than 10 µM.
`COc1cc(OC)c(-c2cc3ccccc3s2)cc1/C=C/C(=O)c1ccc(SCC(=O)O)cc1` [Example 23, {4-[3E-(5-Benzo[b]thiophen-2-yl-2,4-dimethoxy-phenyl)-acryloyl]-phenylthio}-acetic acid] yielded an IC50 of less than 1 µM.
`COc1cc(OC)c(-c2cccs2)cc1/C=C/C(=O)c1ccc(C(C)(C)C(=O)O)cc1` [Example 77, 2-{4-[3E-(2,4-Dimethoxy-5-thiophen-2-yl-phenyl)-acryloyl]-phenyl}-2-methyl-propionic acid] returned an IC50 of less than 5 µM.
On the same count and under the same terms, under `COc1cc(OC)c(-c2cc3ccccc3s2)cc1/C=C/C(=O)c1ccc(C(=O)O)cc1` [Example 120, 4-[3E-(5-Benzo[b]thien-2-yl-2,4-dimethoxyphenyl)-acryloyl]-benzoic acid, N-methyl-D-glucamine salt] stands less than 1 µM; under `O=C(/C=C/c1ccc(-c2cccs2)cc1)c1ccc(SC(F)(F)C(=O)O)cc1` [Example 25, Difluoro-{4-[3E-(4-thiophen-2-yl-phenyl)-acryloyl]-phenylthio}-acetic acid, sodium salt], more than 10 µM; under `COc1cc(OC)c(-c2cc3ccccc3s2)cc1/C=C/C(=O)c1ccc(S(N)(=O)=O)cc1` [Example 80, 4-[3E-(5-Benzo[b]thiophen-2-yl-2,4-dimethoxy-phenyl)-acryloyl]-benzenesulfonamide], less than 5 µM.
The same measure, in the same setting: the same measure for `CCOC(=O)C1(C(=O)OCC)Oc2ccc(C(=O)/C=C/c3cc(OC)c(OC)c(-c4cccs4)c3)cc2O1` [Example 103, 5-[3E-(3,4-Dimethoxy-5-thiophen-2-yl-phenyl)-acryloyl]-benzo[1,3]dioxole-2,2-dicarboxylic acid, diethyl ester]: more than 10 µM.
The same measure, in the same setting: under `COc1cc(OC)c(-c2cc3ccccc3s2)cc1/C=C\C(=O)c1ccc(C(=O)O)cc1` [Example 79, 4-[3Z-(5-Benzo[b]thien-2-yl-2,4-dimethoxyphenyl)-acryloyl]-benzoic acid] stands less than 1 µM; under `COc1cc(/C=C/C(=O)c2ccc3c(ccn3C)c2)cc(-c2cccs2)c1OC` [Example 28, 3E-(3,4-Dimethoxy-5-thiophen-2-yl-phenyl)-1-(1-methyl-1H-indol-5-yl)-propenone], less than 5 µM.

Tested on in another data set: not given
Assay: not given
Conditions: not given
Regarding `COc1cc(OC)c(-c2nncn2CC(C)C)cc1/C=C/C(=O)c1ccc(C(=O)O)cc1` [Example 110, 4-{3E-[5-(4-Isobutyl-4H-[1,2,4]triazol-3-yl)-2,4-dimethoxy-phenyl]-acryloyl}-benzoic acid], the melting point was > 240 °C (dec.).
`COc1cc(OCCN2CCOCC2)c(/C=C/C(=O)c2ccc(S(N)(=O)=O)cc2)cc1-c1cccs1` [Example 81, 4-{3E-[4-Methoxy-2-(2-morpholin-4-yl-ethoxy)-5-thiophen-2-yl-phenyl]-acryloyl}-benzenesulfonamide] came in with a melting point of 186 to 188 °C.
The same measure, in the same setting: under `COc1cc(OC)c(-c2cccs2)cc1/C=C/C(=O)c1ccc(-c2nn[nH]n2)cc1` [Example 78, 3E-(2,4-Dimethoxy-5-thiophen-2-yl-phenyl)-1-[4-(2H-tetrazol-5-yl)-phenyl]-propenone] stands 235 °C (dec.); under `COc1ccc(/C=C/C(=O)c2ccc(C(=O)O)cc2)c(-c2cccs2)c1` [Example 34, 4-[3E-(4-Methoxy-2-thiophen-2-yl-phenyl)-acryloyl]-benzoic acid], 209 to 211 °C.
The same measure, in the same setting: the same measure for `COc1cc(OC)c(-c2cc3ccccc3s2)cc1/C=C/C(=O)c1ccc(C(=O)NC(C)=O)cc1` [Example 95, N-Acetyl-4-[3E-(5-benzo[b]thiophen-2-yl-2,4-dimethoxy-phenyl)-acryloyl]-benzamide]: 228 to 229 °C; for `COc1cc(OC)c(-c2cc3ccccc3s2)cc1/C=C/C(=O)c1ccc(S(=O)(=O)c2ccccc2)cc1` [Example 107, 1-(4-Benzenesulfonyl-phenyl)-3E-(5-benzo[b]thiophen-2-yl-2,4-dimethoxy-phenyl)-propenone]: 127 to 128 °C.
Same read-out and setting: the same measure for `COc1cc(OC)c(C2C=CCO2)cc1/C=C/C(=O)c1ccc(S(N)(=O)=O)cc1` (stereo not drawn) [Example 121, 4-{3E-[5-(2,5-Dihydro-furan-2-yl)-2,4-dimethoxy-phenyl]-acryloyl}-benzenesulfonamide]: 194 to 195 °C.
Consider `NS(=O)(=O)c1ccc(C(=O)/C=C/c2cccc(C3CC=CO3)c2)cc1` (stereo not drawn) [Example 119, 4-{3-[3E-(2,3-Dihydro-furan-2-yl)-phenyl]-acryloyl}-benzenesulfonamide], for which the melting point was in the range of 152 to 153 °C.
For the molecule `COc1cc(Oc2cccc(C)n2)c(/C=C/C(=O)c2ccc(S(N)(=O)=O)cc2)cc1-c1cccs1` [Example 122, 4-{3E-[4-Methoxy-2-(6-methyl-pyridin-2-yloxy)-5-thiophen-2-yl-phenyl]-acryloyl}-benzenesulfonamide], the melting point was 164 to 165 °C.
On to `COc1cc(OCc2nnn[nH]2)c(/C=C/C(=O)c2ccc(S(N)(=O)=O)cc2)cc1-c1cccs1` [Example 89, 4-{3E-[4-Methoxy-2-(1H-tetrazol-5-ylmethoxy)-5-thiophen-2-yl-phenyl]-acryloyl}-benzenesulfonamide], for which the melting point is 163 to 164 °C (dec.).
Molecule `O=C(O)CNC(=O)Nc1ccc(C(=O)/C=C/c2ccc(-c3cccs3)cc2)cc1` [Example 97, 4(3E-{4-[3-(4-Thiophen-2-yl-phenyl)-acryloyl]-phenyl}-ureido)-acetic acid] yielded a melting point of 222 to 225 °C.
